{"source": "PubChem BioAssay (NCI)", "test_in_all_cases": "inhibition of tumour cell growth, NCI panel, 48 h", "key": {"[1]": {"tested_on": "SK-MEL-28 melanoma"}, "[2]": {"tested_on": "COLO 205 colon"}, "[3]": {"tested_on": "RXF 393 renal"}, "[4]": {"tested_on": "UO-31 renal"}, "[5]": {"tested_on": "NCI-H226 lung"}, "[6]": {"tested_on": "HCT-116 colon"}, "[7]": {"tested_on": "HCC-2998 colon"}, "[8]": {"tested_on": "LOX IMVI melanoma"}, "[9]": {"tested_on": "A498 renal"}, "[10]": {"tested_on": "K-562 leukemia"}, "[11]": {"tested_on": "SF-268 CNS"}, "[12]": {"tested_on": "KM12 colon"}, "[13]": {"tested_on": "M14 melanoma"}, "[14]": {"tested_on": "HCT-15 colon"}, "[15]": {"tested_on": "SK-OV-3 ovarian"}, "[16]": {"tested_on": "U251 CNS"}, "[17]": {"tested_on": "BT-549 breast"}, "[18]": {"tested_on": "SK-MEL-2 melanoma"}, "[19]": {"tested_on": "SNB-75 CNS"}, "[20]": {"tested_on": "CCRF-CEM leukemia"}, "[21]": {"tested_on": "MDA-MB-435"}, "[22]": {"tested_on": "NCI-H522 lung"}, "[23]": {"tested_on": "HOP-62 NSCLC"}, "[24]": {"tested_on": "EKVX NSCLC"}, "[25]": {"tested_on": "SNB-19 CNS"}, "[26]": {"tested_on": "RPMI-8226 leukemia"}, "[27]": {"tested_on": "T-47D breast"}, "[28]": {"tested_on": "NCI-H23 lung"}, "[29]": {"tested_on": "OVCAR-4 ovarian"}, "[30]": {"tested_on": "CAKI-1 renal"}, "[31]": {"tested_on": "SN12C renal"}, "[32]": {"tested_on": "PC-3 prostate"}, "[33]": {"tested_on": "A549 NSCLC"}, "[34]": {"tested_on": "UACC-62 melanoma"}, "[35]": {"tested_on": "NCI/ADR-RES ovarian"}, "[36]": {"tested_on": "HS 578T breast"}, "[37]": {"tested_on": "HT29 colon"}, "[38]": {"tested_on": "SW-620 colon"}, "[39]": {"tested_on": "TK-10 renal"}, "[40]": {"tested_on": "MDA-MB-231 breast"}, "[41]": {"tested_on": "ACHN renal"}, "[42]": {"tested_on": "NCI-H460 lung"}, "[43]": {"tested_on": "SK-MEL-5 melanoma"}, "[44]": {"tested_on": "786-0 renal"}, "[45]": {"tested_on": "MCF7 breast"}, "[46]": {"tested_on": "OVCAR-8 ovarian"}, "[47]": {"tested_on": "OVCAR-5 ovarian"}}, "note": "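How tested: cells in 96-well plates exposed to compound for 48 hours at five concentrations. The concentration for 50% growth inhibition is given as GI50. The concentration for full growth arrest is given as TGI.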"}
{"smiles": "C#Cc1nc(/C=C\\CCCCCCC(=O)NO)cs1", "values": [{"measurement": "GI50", "setting": "[1]", "result": 3.69, "unit": "µM"}, {"measurement": "TGI", "setting": "[1]", "result": 30.1, "unit": "µM"}, {"measurement": "GI50", "setting": "[2]", "result": 1.9, "unit": "µM"}, {"measurement": "TGI", "setting": "[2]", "result": 3.82, "unit": "µM"}, {"measurement": "GI50", "setting": "[3]", "result": 1.72, "unit": "µM"}, {"measurement": "TGI", "setting": "[3]", "result": 4.14, "unit": "µM"}, {"measurement": "GI50", "setting": "[4]", "result": 0.163, "unit": "µM"}, {"measurement": "TGI", "setting": "[4]", "result": 0.318, "unit": "µM"}, {"measurement": "GI50", "setting": "[5]", "result": 2.81, "unit": "µM"}, {"measurement": "TGI", "setting": "[5]", "result": 9.71, "unit": "µM"}, {"measurement": "GI50", "setting": "[6]", "result": 2.01, "unit": "µM"}, {"measurement": "TGI", "setting": "[6]", "result": 7.74, "unit": "µM"}, {"measurement": "GI50", "setting": "[7]", "result": 5.58, "unit": "µM"}, {"measurement": "TGI", "setting": "[7]", "result": 18.1, "unit": "µM"}, {"measurement": "TGI", "setting": "[8]", "result": 0.0231, "unit": "µM"}, {"measurement": "GI50", "setting": "[9]", "result": 1.68, "unit": "µM"}, {"measurement": "TGI", "setting": "[9]", "result": 3.3, "unit": "µM"}, {"measurement": "GI50", "setting": "[10]", "result": 2.1, "unit": "µM"}, {"measurement": "TGI", "setting": "[10]", "result": "> 100", "unit": "µM"}, {"measurement": "GI50", "setting": "[11]", "result": 2.84, "unit": "µM"}, {"measurement": "TGI", "setting": "[11]", "result": 7.64, "unit": "µM"}, {"measurement": "GI50", "setting": "[12]", "result": 3.25, "unit": "µM"}, {"measurement": "TGI", "setting": "[12]", "result": 11.8, "unit": "µM"}, {"measurement": "GI50", "setting": "[13]", "result": 3.65, "unit": "µM"}, {"measurement": "TGI", "setting": "[13]", "result": 19.9, "unit": "µM"}, {"measurement": "GI50", "setting": "[14]", "result": 3, "unit": "µM"}, {"measurement": "TGI", "setting": "[14]", "result": 13.4, "unit": "µM"}, {"measurement": "GI50", "setting": "[15]", "result": 2.49, "unit": "µM"}, {"measurement": "TGI", "setting": "[15]", "result": 7.44, "unit": "µM"}, {"measurement": "GI50", "setting": "[16]", "result": 1.86, "unit": "µM"}, {"measurement": "TGI", "setting": "[16]", "result": 3.96, "unit": "µM"}, {"measurement": "GI50", "setting": "[17]", "result": 4.53, "unit": "µM"}, {"measurement": "TGI", "setting": "[17]", "result": 42.5, "unit": "µM"}, {"measurement": "GI50", "setting": "[18]", "result": 2.72, "unit": "µM"}, {"measurement": "TGI", "setting": "[18]", "result": 8.53, "unit": "µM"}, {"measurement": "GI50", "setting": "[19]", "result": 1.4, "unit": "µM"}, {"measurement": "TGI", "setting": "[19]", "result": 4.27, "unit": "µM"}, {"measurement": "GI50", "setting": "[20]", "result": 0.329, "unit": "µM"}, {"measurement": "TGI", "setting": "[20]", "result": 11.6, "unit": "µM"}, {"measurement": "GI50", "setting": "[21]", "result": 2.75, "unit": "µM"}, {"measurement": "TGI", "setting": "[21]", "result": 11.8, "unit": "µM"}, {"measurement": "GI50", "setting": "[22]", "result": 0.177, "unit": "µM"}, {"measurement": "TGI", "setting": "[22]", "result": 0.352, "unit": "µM"}, {"measurement": "GI50", "setting": "[23]", "result": 2.67, "unit": "µM"}, {"measurement": "TGI", "setting": "[23]", "result": 11.4, "unit": "µM"}, {"measurement": "GI50", "setting": "[24]", "result": 5.23, "unit": "µM"}, {"measurement": "TGI", "setting": "[24]", "result": "> 100", "unit": "µM"}, {"measurement": "GI50", "setting": "[25]", "result": 3.99, "unit": "µM"}, {"measurement": "TGI", "setting": "[25]", "result": 23, "unit": "µM"}, {"measurement": "GI50", "setting": "[26]", "result": 1.54, "unit": "µM"}, {"measurement": "TGI", "setting": "[26]", "result": 4.96, "unit": "µM"}, {"measurement": "GI50", "setting": "[27]", "result": 1.62, "unit": "µM"}, {"measurement": "TGI", "setting": "[27]", "result": 4.24, "unit": "µM"}, {"measurement": "GI50", "setting": "[28]", "result": 0.964, "unit": "µM"}, {"measurement": "TGI", "setting": "[28]", "result": 2.39, "unit": "µM"}, {"measurement": "GI50", "setting": "[29]", "result": 2.05, "unit": "µM"}, {"measurement": "TGI", "setting": "[29]", "result": 5.77, "unit": "µM"}, {"measurement": "GI50", "setting": "[30]", "result": 1.82, "unit": "µM"}, {"measurement": "TGI", "setting": "[30]", "result": 4.27, "unit": "µM"}, {"measurement": "GI50", "setting": "[31]", "result": 4.02, "unit": "µM"}, {"measurement": "TGI", "setting": "[31]", "result": "> 100", "unit": "µM"}, {"measurement": "GI50", "setting": "[32]", "result": 3.41, "unit": "µM"}, {"measurement": "TGI", "setting": "[32]", "result": 20.1, "unit": "µM"}, {"measurement": "GI50", "setting": "[33]", "result": 2.94, "unit": "µM"}, {"measurement": "TGI", "setting": "[33]", "result": 11.4, "unit": "µM"}, {"measurement": "GI50", "setting": "[34]", "result": 1.35, "unit": "µM"}, {"measurement": "TGI", "setting": "[34]", "result": 3.29, "unit": "µM"}, {"measurement": "GI50", "setting": "[35]", "result": 0.861, "unit": "µM"}, {"measurement": "TGI", "setting": "[35]", "result": 5.83, "unit": "µM"}, {"measurement": "GI50", "setting": "[36]", "result": 2, "unit": "µM"}, {"measurement": "TGI", "setting": "[36]", "result": 8.41, "unit": "µM"}, {"measurement": "GI50", "setting": "[37]", "result": 2.6, "unit": "µM"}, {"measurement": "TGI", "setting": "[37]", "result": 7.5, "unit": "µM"}, {"measurement": "GI50", "setting": "[38]", "result": 1.69, "unit": "µM"}, {"measurement": "TGI", "setting": "[38]", "result": 4.2, "unit": "µM"}, {"measurement": "GI50", "setting": "[39]", "result": 1.68, "unit": "µM"}, {"measurement": "TGI", "setting": "[39]", "result": 6.36, "unit": "µM"}, {"measurement": "GI50", "setting": "[40]", "result": 2.59, "unit": "µM"}, {"measurement": "TGI", "setting": "[40]", "result": 6.25, "unit": "µM"}, {"measurement": "GI50", "setting": "[41]", "result": 2.33, "unit": "µM"}, {"measurement": "TGI", "setting": "[41]", "result": 6.46, "unit": "µM"}, {"measurement": "GI50", "setting": "[42]", "result": 2.72, "unit": "µM"}, {"measurement": "TGI", "setting": "[42]", "result": 16.4, "unit": "µM"}, {"measurement": "GI50", "setting": "[43]", "result": 2.38, "unit": "µM"}, {"measurement": "TGI", "setting": "[43]", "result": 6.69, "unit": "µM"}, {"measurement": "GI50", "setting": "[44]", "result": 0.376, "unit": "µM"}, {"measurement": "TGI", "setting": "[44]", "result": 12.6, "unit": "µM"}, {"measurement": "GI50", "setting": "[45]", "result": 2.94, "unit": "µM"}, {"measurement": "TGI", "setting": "[45]", "result": "> 100", "unit": "µM"}, {"measurement": "GI50", "setting": "[46]", "result": 2, "unit": "µM"}, {"measurement": "TGI", "setting": "[46]", "result": 8.77, "unit": "µM"}, {"measurement": "GI50", "setting": "[47]", "result": 2.63, "unit": "µM"}, {"measurement": "TGI", "setting": "[47]", "result": 11.5, "unit": "µM"}]}
